Reference: article PMC11811207, “Macrocycle-based PROTACs selectively degrade cyclophilin A and inhibit HIV-1 and HCV” (Nature Communications, 2025)
Blank lines part the entries; values can stand above or below the compound they belong to.

Assays:
[1] = tested on: CypA and CypB; assay: CypA and CypB immunoblot in Jurkat cells treated with CsA-based PROTAC JW4-10; assay type: cell-based, human
Procedure: (§1) U87 cells (5 × 10^4 cells/well, 12 well plate), Huh7 cells (1 × 10^5 cells/well, 12 well plate), Calu-3 cells (1 × 10^5 cells/well, 12 well plate), Jurkat cells (5 × 10^5 cells/mL, 24 well plate, 1 mL/well), THP-1 Dual cells (4 × 10^5 cells/mL, 24 well plate, 1 mL/well), primary MDMs (confluent well), or primary resting/activated T cells (1-2 × 10^6 cells/well, 96 well plate) were treated with 5 μM Cyp-PROTAC or DMSO for 48 h. […] MLN4924 was washed out before the addition of Cyp-PROTAC, but VHLi was kept in for the duration of the experiment. In competitor experiments, Jurkat cells were treated with 10 μM TWH106 and 1 μM Cyp-PROTAC simultaneously for 48 h. For the time course experiments, Jurkat cells were treated with 5 μM Cyp inhibitor or DMSO and cells were harvested at indicated time points. For the titration experiments, Jurkat cells were treated with 0.01 – 10 μM Cyp inhibitor or DMSO for 24 h or 48 h. Before harvesting for immunoblot, cells were washed twice in PBS.
(§2) Cells were lysed in RIPA buffer (50 mM Tris pH 8.0, 150 mM sodium chloride, 1.0% Triton X-100, 0.5% sodium deoxycholate, 0.1% sodium dodecyl sulphate (SDS)) supplemented with protease inhibitors (cOmplete mini, EDTA-free, Roche) and phosphatase inhibitors (PhosSTOP, Roche). After 10 min incubation on ice, samples were centrifuged (16000 × g, 10 min, 4 °C), and the supernatant protein content was determined using Pierce^TM BCA Protein Assay Kit (Thermo Fisher Scientific). Samples were combined with 4x Laemmli sample buffer (200 mM Tris pH 6.8, 40% glycerol, 8% SDS, 0.4% Bromophenol Blue) and the appropriate amount of RIPA buffer to normalise protein concentrations of samples and boiled for 5 min. Proteins were separated by SDS-PAGE on 15% polyacrylamide gels and transferred onto nitrocellulose membrane using the Trans-Blot Turbo Transfer System (Bio-Rad). […] Densitometry analysis was performed using ImageJ (v2.14.0), and normalised protein densities were calculated by normalisation to β-actin loading control and untreated control as stated. […]

[2] = target: T1, CypA (Homo sapiens, UniProt P62937); assay: CypA degradation in Jurkat cells by immunoblot; assay type: cell-based; details: for effect on CypA levels in the absence of PROTAC: Jurkat, MLN4924 1 μM 6 h or VHLi 50 μM
T1 construct: endogenous in cells; host or cells: Jurkat; also Calu-3, THP-1, MDMs, U87, Huh7, primary human CD4+ T cells
T1 sequence (P62937 whole entry): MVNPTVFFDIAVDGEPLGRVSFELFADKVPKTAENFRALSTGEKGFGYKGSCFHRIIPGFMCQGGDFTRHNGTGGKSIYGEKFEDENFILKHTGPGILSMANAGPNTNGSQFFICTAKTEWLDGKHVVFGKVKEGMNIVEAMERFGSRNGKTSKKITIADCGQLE
Procedure: as §1
as §2, with “(Bio-Rad). Blots were blocked in 5% milk in PBS-Tween for 1 h and incubated with primary antibodies in 5% milk in PBS-Tween overnight. After washing in PBS-Tween, blots were incubated with IRDye® fluorescent secondary antibodies (LI-COR) for 1 h, washed in PBS-Tween, then PBS, and visualised on an LI-COR Odyssey imaging system. Uncropped and unprocessed scans are provided in the Source Data file (main figures) and in the Figshare research data repository 10.6084/m9.figshare.c.7387381 (supplementary figures).” for “(Bio-Rad).”
DC50s and Dmaxs were calculated from sigmoidal (4-parameter logistic) fits, mean (n = 2 independent experiments).

[3] = tested on: U87 cells; assay: MTT viability assay, U87 cells; assay type: cell-based; details: U87, 10 μM
Procedure: (§3) U87 cells (1 × 10^4 cells/well, 48 well plate) or Jurkat cells (5 × 10^3 cells/well, 96 well U-bottom plate) were treated with serial dilutions of Cyp inhibitors as indicated. After 48 h, the media was aspirated and replaced with fresh Cyp inhibitor dilutions and the lentiviral vector (MOI: 0.25) for a further 48 h. Experiments were carried out in triplicate.
(§4) 3-(4,5-Dimethyl-2-thiazolyl)-2,5-diphenyl-2H-tetrazolium bromide (MTT) assay was performed on U87 cells, Jurkat cells or Huh7 cells treated with Cyp inhibitors as indicated. At the time point indicated, 10% v/v MTT (stock at 5 mg/mL in PBS) (475989, Sigma Aldrich) was added, and cells were incubated for 1 - 2 h at 37 °C. 100 μL solubilisation solution (10% SDS and 0.01 M HCl) was added, and after overnight incubation at 37 °C, absorbance was measured at 570 nm. Experiments were carried out in triplicate.

[4] = tested on: HCV JFH-1 replicon; assay: HCV JFH-1 subgenomic replicon (luciferase) in Huh7 cells; assay type: cell-based; details: Huh7, 5 μM pretreatment, washed out, not readded
Procedure: HCV JFH-1 subgenomic replicon (SGR) (pFKI389Luc/NS3-3’_dg_JFH, previously described)[87] plasmid DNA (10 μg) was linearised by digestion with MluI, and purified linearised DNA (1 μg) was used as a template for in vitro transcription, according to the MEGAscript T7 Transcription Kit instructions (Invitrogen). RNA was resuspended in nuclease-free water at a concentration of 1 μg/μL, aliquoted, and stored at − 80 °C.
HCV SGR RNA (5 μg or 1 μg) was electroporated into 2 × 10^6 or 2 × 10^5 Huh7 cells, respectively, using a Neon transfection system (Thermo Scientific). Single-cell suspensions were washed with PBS and resuspended in 100 μL or 10 μL of Buffer R, respectively. Resuspended cells were mixed with RNA and loaded into a Neon Tip and electroporated using the Neon Transfection system (1400 V, 20 ms, 1 pulse) and resuspended in 12 mL or 1.2 mL of media, respectively, prior to seeding in 96 well plates at a density of ~2 × 10^4 cells/well. […] Experiments were carried out in triplicate. Firefly luciferase activity was measured on a Glomax (Promega) at 4 h post electroporation (hpe) and 48 hpe using the SteadyGlo reagent (Promega) according to the manufacturer’s instructions. Data at 48 hpe were normalised to the input luciferase signal at 4 hpe.

[5] = tested on: THP-1 cell proteome; assay: Mass spectrometry-based proteomics in THP-1 cells; assay type: cell-based, human; details: THP-1, 5 μM, 72 h
Procedure: THP-1 Dual cells were treated with 5 μM Cyp inhibitor or DMSO for 72 h. After washing with PBS, cells were lysed (5% SDS, 5 mM tris(2-carboxyethyl)phosphine (TCEP), 10 mM chloroacetamide (CAA), 100 mM Tris, 1% Triton X-100, pH 8.5) and boiled for 10 min followed by sonication in a water bath for 10 min. Protein concentration was estimated by BCA assay (Thermo Fisher Scientific). Protein digestion was automated on a KingFisher APEX robot (Thermo Fisher Scientific) in a 96-well format using a protocol from Koenig et al.[83] with minor modifications. […]
Peptides were then dissolved in 0.5% TFA before liquid chromatography–tandem mass spectrometry (MS/MS) analysis. The mixture of tryptic peptides was analysed using an Ultimate3000 high-performance liquid chromatography system coupled online to an Eclipse mass spectrometer (Thermo Fisher Scientific). […]
All raw files were analysed by DIA-NN v1.8.1[84], searching against library generated automatically using Human reference proteome (UniProt) and standard settings: peptides from 7 to 30 amino acids, max number of missed cleavages of 1, oxidation (M) and protein-acetylation as only variable modifications. The data files generated by DIA-NN were analysed using Perseus version 2.0.10.0[85]. […]

[6] = tested on: Jurkat cells; assay: MTT viability assay, Jurkat cells; assay type: cell-based, human; details: highest concentrations tested
Procedure: as §3, §4

[7] = target: T2, CypB (Homo sapiens, UniProt P23284); assay: CypB levels in Jurkat cells by immunoblot; assay type: cell-based
T2 construct: endogenous in cells; host or cells: Jurkat
T2 sequence (P23284 34-216): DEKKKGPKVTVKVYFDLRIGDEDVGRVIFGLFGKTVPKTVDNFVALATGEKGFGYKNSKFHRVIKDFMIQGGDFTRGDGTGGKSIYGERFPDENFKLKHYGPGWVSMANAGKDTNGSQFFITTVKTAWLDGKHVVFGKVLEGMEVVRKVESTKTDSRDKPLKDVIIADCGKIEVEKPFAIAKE
Procedure: as §1, with “For the time course experiments, Jurkat cells were treated with 5 μM Cyp inhibitor or DMSO and cells were harvested at indicated time points. For the titration experiments, Jurkat cells were treated with 0.01 – 10 μM Cyp inhibitor or DMSO for 24 h or 48 h. Before harvesting for immunoblot, cells were washed twice in PBS.” left out
Cells were lysed in RIPA buffer (50 mM Tris pH 8.0, 150 mM sodium chloride, 1.0% Triton X-100, 0.5% sodium deoxycholate, 0.1% sodium dodecyl sulphate (SDS)) supplemented with protease inhibitors (cOmplete mini, EDTA-free, Roche) and phosphatase inhibitors (PhosSTOP, Roche). After 10 min incubation on ice, samples were centrifuged (16000 × g, 10 min, 4 °C), and the supernatant protein content was determined using Pierce^TM BCA Protein Assay Kit (Thermo Fisher Scientific). […] Densitometry analysis was performed using ImageJ (v2.14.0), and normalised protein densities were calculated by normalisation to β-actin loading control and untreated control as stated. […]

[8] = target: full-length human CypA (Homo sapiens, UniProt P62937); assay: SPR against CypA (immobilised on CM5 chip)
full-length human CypA, sequence (P62937 whole entry, the tested form may be a part): as the sequence (P62937 whole entry) above

[9] = target: N-truncated CypB (Homo sapiens, UniProt P23284); assay: SPR against N-truncated CypB (immobilised on CM5 chip)
N-truncated CypB, sequence (P23284 34-212): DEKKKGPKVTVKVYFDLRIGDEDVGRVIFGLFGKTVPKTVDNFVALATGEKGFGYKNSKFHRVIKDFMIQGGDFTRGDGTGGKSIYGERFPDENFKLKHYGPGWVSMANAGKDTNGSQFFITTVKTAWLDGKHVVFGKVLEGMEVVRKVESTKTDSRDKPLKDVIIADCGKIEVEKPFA

[10] = tested on: HIV-1 NL4.3; assay: Wild-type HIV-1 spreading infection in activated primary CD4+ T cells

SMILES: CC[C@@H]1NC(=O)[C@H]([C@H](O)[C@H](C)C/C=C/CCCCC(=O)N[C@H](C(=O)N2C[C@H](O)C[C@H]2C(=O)N[C@@H](C)c2ccc(-c3scnc3C)cc2)C(C)(C)C)N(C)C(=O)[C@H](C(C)C)N(C)C(=O)[C@H](CC(C)C)N(C)C(=O)[C@H](CC(C)C)N(C)C(=O)[C@@H](C)NC(=O)[C@H](C)NC(=O)[C@H](CC(C)C)N(C)C(=O)[C@H](C(C)C)NC(=O)[C@H](CC(C)C)N(C)C(=O)CN(C)C1=O [JW4-10]
degradation of CypA and CypB ([1]; 5 μM, 48 h): degraded both CypA and CypB
rescue by excess VHL inhibitor VH298 pretreatment ([1]; 50 µM VHLi 2 h before 5 µM PROTAC): rescued CypA, but not CypB
rescue by MLN4924 pretreatment ([1]; MLN4924 1 μM 6 h before 5 μM PROTAC): fully rescued CypA, but not CypB

effect on CypA levels in the absence of PROTAC [2]: no impact on CypA levels
SMILES: NS(=O)(=O)OC[C@@H]1C[C@@H](n2ccc3c(N[C@H]4CCc5ccccc54)ncnc32)C[C@@H]1O [MLN4924, reference compound]

SMILES: C[C@@H]1NC(=O)[C@H](Cc2ccc([N+](=O)[O-])cc2)NC(=O)C/C=C/c2ccc3ccc(nc3c2)[C@@H](C)OC(=O)[C@@H]2CCCN(N2)C1=O [TWH106]
cell viability (MTT) [3]: slightly toxic
antiviral activity against HCV replicon, pretreatment only [4]: abrogated
effect on CypA protein levels, time course ([2]; Jurkat cells, 5 μM, up to 6 days): did not reduce CypA levels except a small decrease after 6 days
effect on CypA levels, dose response ([2]; Jurkat cells, 0.01 – 10 μM, 24 h and 48 h): mild CypA loss only at 10 µM and after 24 hours
effect on CypA in proteomics [5]: did not affect CypA levels
cell viability (MTT) [6]: toxic
effect on CypB levels, time course ([7]; 5 μM, 6 days): most effectively reduced
effect on CypB levels, dose response ([7]; 0.01–10 μM, 48 h): dose-dependent decrease in CypB
Kd ([8]; CypA KD, SPR equilibrium analysis, full-length CypA, mean of two independent experiments ± SD): 53 ± 5 nM
Kd ([8]; CypA dissociation constant (KD) from sigmoid fit, representative experiment, one of two independent experiments, Supplementary Fig. 2): 48 nM
Kd ([9]; CypB KD, SPR equilibrium analysis, N-truncated CypB, mean of two independent experiments ± SD): 139 ± 24 nM
Kd ([9]; CypB dissociation constant (KD) from sigmoid fit, representative experiment, one of two independent experiments, Supplementary Fig. 3): 163 nM
lower affinity for N-truncated CypB compared to CypA ([9]; SPR KD CypB vs CypA): 2-3 fold
antiviral activity, pretreatment only ([10]; 5 μM 48 h pretreatment, not readded after infection): abrogated
antiviral activity (Gag+ cells, viral particles in supernatant) ([10]; continuous treatment 1 μM or 5 μM): antiviral

SMILES: Cc1ncsc1-c1ccc(CNC(=O)[C@@H]2C[C@@H](O)CN2C(=O)[C@@H](NC(=O)C2(C#N)CC2)C(C)(C)C)cc1 [VH298, reference compound]
effect on CypA levels in the absence of PROTAC [2]: did not impact CypA levels
